From patent publication US5530126A, “Process for the preparation of substituted 6-(pyrazol-3yl)-1,4-benzoxazin-3-ones” (Monsanto Company, priority 1994, dated 1996)

Legend:
Type in all cases: in vivo
[1] = system: Annual bluegrass; test: Pre-emergence herbicide test; conditions: read-out: % plant inhibition (Anbg); for inhibition at 1120 g/ha: 1.12 kg/ha; for inhibition at 11210 g/ha: 11.21 kg/ha
Procedure: (§1) The tests for pre-emergence herbicide activity are conducted as follows:
(§2) Topsoil is placed in an aluminum pan and compacted to a depth of 0.95 to 1.27 cm from the top of the pan. On the top of the soil is placed a predetermined number of seeds of each of several monocotyledonous and dicotyledonous annual plant species and/or vegetative propagules of various perennial plant species. A known amount of the active ingredient dissolved or suspended in an organic solvent, e.g., acetone, or water as carrier is then applied directly to the seed bed, which is then covered with a layer of untreated topsoil to level fill the pan. After treatment, the pans are moved to a greenhouse bench where they are watered from below as needed to give adequate moisture for germination and growth.
(§3) Approximately 10-14 days (usually 11 days) after seeding and treating, the pans are observed and the results (% inhibition) are recorded.
(§4) Tables 7 and 7A below summarize the results of the pre-emergence herbicidal activity tests of compounds of this invention in weeds. The herbicidal rating shown in these tables is the percent inhibition of each plant species. The plant species usually regarded as weeds which are utilized in one set of tests, the data for which are shown in the tables, are identified by letter headings above the columns in accordance with the following legend: […]

[2] = system: Barnyardgrass; test: Pre-emergence herbicide test; conditions: Echinochloa crus-galli, read-out: % plant inhibition (Bygr); for inhibition at 1120 g/ha: 1.12 kg/ha; for inhibition at 11210 g/ha: 11.21 kg/ha
Procedure: as §1, §2, §3, §4

[3] = system: Cocklebur; test: Pre-emergence herbicide test; conditions: Xanthium strumarium, read-out: % plant inhibition (Cobu); for inhibition at 1120 g/ha: 1.12 kg/ha; for inhibition at 11210 g/ha: 11.21 kg/ha
Procedure: as §1, §2, §3, §4

[4] = system: Downy Brome; test: Pre-emergence herbicide test; conditions: Bromus tectorum, read-out: % plant inhibition (Dobr); for inhibition at 1120 g/ha: 1.12 kg/ha; for inhibition at 11210 g/ha: 11.21 kg/ha
Procedure: as §1, §2, §3, §4

[5] = system: Indian Mustard; test: Pre-emergence herbicide test; conditions: Brassica juncea, read-out: % plant inhibition (Inmu); for inhibition at 1120 g/ha: 1.12 kg/ha; for inhibition at 11210 g/ha: 11.21 kg/ha
Procedure: as §1, §2, §3, §4

[6] = system: Morningglory; test: Pre-emergence herbicide test; conditions: Ipomoea, read-out: % plant inhibition (Mogl); for inhibition at 1120 g/ha: 1.12 kg/ha; for inhibition at 11210 g/ha: 11.21 kg/ha
Procedure: as §1, §2, §3, §4

[7] = system: Seedling johnsongrass; test: Pre-emergence herbicide test; conditions: Sorghum halepense, read-out: % plant inhibition (Sejg); for inhibition at 1120 g/ha: 1.12 kg/ha; for inhibition at 11210 g/ha: 11.21 kg/ha
Procedure: as §1, §2, §3, §4

[8] = system: Velvetleaf; test: Pre-emergence herbicide test; conditions: Abutilon theophrasti, read-out: % plant inhibition (Vele); for inhibition at 1120 g/ha: 1.12 kg/ha; for inhibition at 11210 g/ha: 11.21 kg/ha
Procedure: as §1, §2, §3, §4

[9] = system: Wild buckwheat; test: Pre-emergence herbicide test; conditions: Fallopia convolvulus, read-out: % plant inhibition (Wibw); for inhibition at 1120 g/ha: 1.12 kg/ha; for inhibition at 11210 g/ha: 11.21 kg/ha
Procedure: as §1, §2, §3, §4

[10] = system: Yellow nutsedge; test: Pre-emergence herbicide test; conditions: Cyperus, read-out: % plant inhibition (Yens); for inhibition at 1120 g/ha: 1.12 kg/ha; for inhibition at 11210 g/ha: 11.21 kg/ha
Procedure: as §1, §2, §3, §4

[11] = system: Annual bluegrass; test: Post-emergence herbicide test; conditions: read-out: % plant inhibition (Anbg); for inhibition at 1120 g/ha: 1.12 kg/ha; for inhibition at 11210 g/ha: 11.21 kg/ha
Description: (§5) Topsoil is placed in aluminum pans having holes in the bottom and compacted to a depth of 0.95 to 1.27 cm from the top of the pan. A predetermined number of seeds of each of several dicotyledonous and monocotyledonous annual plant species and/or vegetative propagules for the perennial plant species are placed on the soil and pressed into the soil surface. The seeds and/or vegetative propagules are covered with soil and leveled. The pans are then placed on a bench in the greenhouse and watered from below as needed. After the plants reach the desired age (two to three weeks), each pan, is removed individually to a spraying chamber and sprayed by means of an atomizer, operating at a spray pressure of 170.3 kPa (10 psig) at the application rates noted. In the spray solution is an amount of an emulsifying agent mixture to give a spray solution or suspension which contains about 0.4% by volume of the emulsifier. The spray solution or suspension contains a sufficient amount of the candidate chemical in order to give application rates of the active ingredient corresponding to those shown in Tables 8 and 8A, while applying a total amount of solution or suspension equivalent to 1870 L/Ha (200 gallons/acre). The pans were returned to the greenhouse and watered as before and the injury to the plants as compared to the control is observed at approximately 10-14 days (usually 11 days) and in some instances observed again at 24-28 days (usually 25 days) after spraying. The post-emergent herbicidal activity shown in these tables is the percent inhibition of each plant species.

[12] = system: Barnyardgrass; test: Post-emergence herbicide test; conditions: Echinochloa crus-galli, read-out: % plant inhibition (Bygr); for inhibition at 1120 g/ha: 1.12 kg/ha; for inhibition at 11210 g/ha: 11.21 kg/ha
Description: as §5

[13] = system: Cocklebur; test: Post-emergence herbicide test; conditions: Xanthium strumarium, read-out: % plant inhibition (Cobu); for inhibition at 1120 g/ha: 1.12 kg/ha; for inhibition at 11210 g/ha: 11.21 kg/ha
Description: as §5

[14] = system: Downy Brome; test: Post-emergence herbicide test; conditions: Bromus tectorum, read-out: % plant inhibition (Dobr); for inhibition at 1120 g/ha: 1.12 kg/ha; for inhibition at 11210 g/ha: 11.21 kg/ha
Description: as §5

[15] = system: Indian Mustard; test: Post-emergence herbicide test; conditions: Brassica juncea, read-out: % plant inhibition (Inmu); for inhibition at 1120 g/ha: 1.12 kg/ha; for inhibition at 11210 g/ha: 11.21 kg/ha
Description: as §5

[16] = system: Morningglory; test: Post-emergence herbicide test; conditions: Ipomoea, read-out: % plant inhibition (Mogl); for inhibition at 1120 g/ha: 1.12 kg/ha; for inhibition at 11210 g/ha: 11.21 kg/ha
Description: as §5

[17] = system: Seedling johnsongrass; test: Post-emergence herbicide test; conditions: Sorghum halepense, read-out: % plant inhibition (Sejg); for inhibition at 1120 g/ha: 1.12 kg/ha; for inhibition at 11210 g/ha: 11.21 kg/ha
Description: as §5

[18] = system: Velvetleaf; test: Post-emergence herbicide test; conditions: Abutilon theophrasti, read-out: % plant inhibition (Vele); for inhibition at 1120 g/ha: 1.12 kg/ha; for inhibition at 11210 g/ha: 11.21 kg/ha
Description: as §5

[19] = system: Wild buckwheat; test: Post-emergence herbicide test; conditions: Fallopia convolvulus, read-out: % plant inhibition (Wibw); for inhibition at 1120 g/ha: 1.12 kg/ha; for inhibition at 11210 g/ha: 11.21 kg/ha
Description: as §5

[20] = system: Yellow nutsedge; test: Post-emergence herbicide test; conditions: Cyperus, read-out: % plant inhibition (Yens); for inhibition at 1120 g/ha: 1.12 kg/ha; for inhibition at 11210 g/ha: 11.21 kg/ha
Description: as §5

SMILES | inhibition at 1120 g/ha [1] [%] | inhibition at 1120 g/ha [2] [%] | inhibition at 1120 g/ha [3] [%] | inhibition at 1120 g/ha [4] [%] | inhibition at 1120 g/ha [5] [%] | inhibition at 1120 g/ha [6] [%] | inhibition at 1120 g/ha [7] [%] | inhibition at 1120 g/ha [8] [%] | inhibition at 1120 g/ha [9] [%] | inhibition at 1120 g/ha [10] [%] | inhibition at 1120 g/ha [11] [%] | inhibition at 1120 g/ha [12] [%] | inhibition at 1120 g/ha [13] [%] | inhibition at 1120 g/ha [14] [%] | inhibition at 1120 g/ha [15] [%] | inhibition at 1120 g/ha [16] [%] | inhibition at 1120 g/ha [17] [%] | inhibition at 1120 g/ha [18] [%] | inhibition at 1120 g/ha [19] [%] | inhibition at 1120 g/ha [20] [%] | also measured
CCOCc1cc(-c2nn(C)c(C(F)(F)F)c2Cl)c(F)cc1Cl [Compound 118] | 100 | 90 | 80 | 100 | 100 | 100 | 90 | 90 | 100 | 0 | 30 | 30 | 80 | 20 | 30 | 60 | 30 | 90 | 100 | 30 | –
Cn1nc(-c2ccc(Cl)cc2)c(Cl)c1C(F)(F)Cl [Compound 83] | – | – | – | – | – | – | – | – | – | – | – | – | – | – | – | – | – | – | – | – | inhibition at 11210 g/ha [1]: 40%; inhibition at 11210 g/ha [2]: 60%; inhibition at 11210 g/ha [3]: 40%; inhibition at 11210 g/ha [4]: 90%; inhibition at 11210 g/ha [5]: 60%; inhibition at 11210 g/ha [6]: 30%; inhibition at 11210 g/ha [7]: 100%; inhibition at 11210 g/ha [8]: 90%; inhibition at 11210 g/ha [9]: 90%; inhibition at 11210 g/ha [10]: 20%; inhibition at 11210 g/ha [11]: 0%; inhibition at 11210 g/ha [12]: 40%; inhibition at 11210 g/ha [13]: 70%; inhibition at 11210 g/ha [14]: 40%; inhibition at 11210 g/ha [15]: 90%; inhibition at 11210 g/ha [16]: 80%; inhibition at 11210 g/ha [17]: 60%; inhibition at 11210 g/ha [18]: 100%; inhibition at 11210 g/ha [19]: 100%; inhibition at 11210 g/ha [20]: 20%
CC(C)OC(=O)COCc1cc(-c2nn(C)c(C(F)(F)F)c2Cl)c(F)cc1Cl [Compound 119] | – | – | – | – | – | – | – | – | – | – | – | – | – | – | – | – | – | – | – | – | inhibition at 11210 g/ha [1]: 10%; inhibition at 11210 g/ha [2]: 100%; inhibition at 11210 g/ha [3]: 100%; inhibition at 11210 g/ha [4]: 80%; inhibition at 11210 g/ha [5]: 100%; inhibition at 11210 g/ha [6]: 100%; inhibition at 11210 g/ha [7]: 80%; inhibition at 11210 g/ha [8]: 100%; inhibition at 11210 g/ha [9]: 100%; inhibition at 11210 g/ha [10]: 70%; inhibition at 11210 g/ha [11]: 100%; inhibition at 11210 g/ha [12]: 100%; inhibition at 11210 g/ha [13]: 100%; inhibition at 11210 g/ha [14]: 100%; inhibition at 11210 g/ha [15]: 100%; inhibition at 11210 g/ha [16]: 100%; inhibition at 11210 g/ha [17]: 100%; inhibition at 11210 g/ha [18]: 100%; inhibition at 11210 g/ha [19]: 100%; inhibition at 11210 g/ha [20]: 20%
Cc1cc(-c2nn(C)c(C(F)(F)F)c2Cl)c(F)cc1Cl [Compound 124] | – | – | – | – | – | – | – | – | – | – | – | – | – | – | – | – | – | – | – | – | inhibition at 11210 g/ha [1]: 100%; inhibition at 11210 g/ha [2]: 100%; inhibition at 11210 g/ha [3]: 100%; inhibition at 11210 g/ha [4]: 100%; inhibition at 11210 g/ha [5]: 100%; inhibition at 11210 g/ha [6]: 100%; inhibition at 11210 g/ha [7]: 100%; inhibition at 11210 g/ha [8]: 100%; inhibition at 11210 g/ha [9]: 100%; inhibition at 11210 g/ha [10]: 20%; inhibition at 11210 g/ha [11]: 70%; inhibition at 11210 g/ha [12]: 90%; inhibition at 11210 g/ha [13]: 70%; inhibition at 11210 g/ha [14]: 50%; inhibition at 11210 g/ha [15]: 90%; inhibition at 11210 g/ha [16]: 100%; inhibition at 11210 g/ha [17]: 100%; inhibition at 11210 g/ha [18]: 100%; inhibition at 11210 g/ha [19]: 100%; inhibition at 11210 g/ha [20]: 20%
Cn1nc(-c2cc(C(=O)OC3CCCCC3)c(Cl)cc2F)c(Cl)c1C(F)(F)F [Compound 134] | 50 | 10 | 30 | 70 | 60 | 20 | 40 | 70 | 90 | 0 | 100 | 100 | 100 | 100 | 100 | 100 | 100 | 100 | 100 | 20 | –
CCC(C)OC(=O)c1cc(-c2nn(C)c(C(F)(F)F)c2Cl)c(F)cc1Cl (stereo not drawn) [Compound 136] | 90 | 70 | 80 | 100 | 90 | 80 | 90 | 90 | 100 | 0 | 100 | 100 | 100 | 100 | 100 | 100 | 100 | 100 | 100 | 10 | –
